Entries after “also recorded” stand apart in the source; their conditions may differ.
Assays:
CYP1A2 = molecular target: T1, CYP1A2 (Homo sapiens, UniProt P05177); assay: Reversible CYP450 inhibition, cocktail format; type: biochemical; conditions: 1A2, reversible inhibition, preliminary
T1 sequence (P05177 1-516): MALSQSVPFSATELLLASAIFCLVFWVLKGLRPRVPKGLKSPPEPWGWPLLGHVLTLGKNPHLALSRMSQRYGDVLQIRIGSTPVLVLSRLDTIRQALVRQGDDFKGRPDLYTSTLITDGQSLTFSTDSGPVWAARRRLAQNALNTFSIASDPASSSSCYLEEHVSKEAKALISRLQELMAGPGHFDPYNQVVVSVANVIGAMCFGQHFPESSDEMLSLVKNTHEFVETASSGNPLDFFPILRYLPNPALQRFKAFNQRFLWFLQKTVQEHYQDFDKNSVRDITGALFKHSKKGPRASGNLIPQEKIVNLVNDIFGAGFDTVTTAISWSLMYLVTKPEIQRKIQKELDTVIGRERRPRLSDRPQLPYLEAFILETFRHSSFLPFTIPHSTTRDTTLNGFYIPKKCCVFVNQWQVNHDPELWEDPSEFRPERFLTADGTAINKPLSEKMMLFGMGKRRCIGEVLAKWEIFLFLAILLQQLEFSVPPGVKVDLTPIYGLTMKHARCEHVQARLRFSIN
Description: (§1) Preliminary in vitro studies on reversible inhibition of major CYP450 enzymes were conducted in a cocktail format for this compound. The IC50 values were 4 μM for CYP2C9, 5 μM for CYP2C19, and greater than 10 μM for CYP3A4, 2C8, 2D6, and 1A2. If total plasma concentrations in humans are less than 0.4 μM, then in vivo drug interaction studies in clinical trials may not be required for this compound.

CYP2D6 = CYP2D6 (Homo sapiens, UniProt P10635); assay: Reversible CYP450 inhibition, cocktail format; type: biochemical; conditions: 2D6, reversible inhibition, preliminary
Chain of CYP2D6 (P10635 whole entry): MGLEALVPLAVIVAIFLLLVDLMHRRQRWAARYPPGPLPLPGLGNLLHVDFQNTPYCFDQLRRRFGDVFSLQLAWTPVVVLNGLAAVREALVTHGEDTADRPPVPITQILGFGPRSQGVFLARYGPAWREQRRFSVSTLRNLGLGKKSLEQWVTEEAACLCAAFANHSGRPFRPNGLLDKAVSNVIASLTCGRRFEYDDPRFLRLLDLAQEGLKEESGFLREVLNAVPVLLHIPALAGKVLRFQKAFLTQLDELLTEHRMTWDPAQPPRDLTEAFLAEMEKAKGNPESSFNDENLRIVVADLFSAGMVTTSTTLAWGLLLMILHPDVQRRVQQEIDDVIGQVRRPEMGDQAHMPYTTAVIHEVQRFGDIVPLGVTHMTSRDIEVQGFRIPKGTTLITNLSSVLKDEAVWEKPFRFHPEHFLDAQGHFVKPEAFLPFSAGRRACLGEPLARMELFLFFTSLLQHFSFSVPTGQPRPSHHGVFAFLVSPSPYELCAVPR
Description: as §1

CYP3A4 = CYP3A4 (Homo sapiens, UniProt P08684); assay: Reversible CYP450 inhibition, cocktail format; type: biochemical; conditions: preliminary
Chain of CYP3A4 (P08684 whole entry): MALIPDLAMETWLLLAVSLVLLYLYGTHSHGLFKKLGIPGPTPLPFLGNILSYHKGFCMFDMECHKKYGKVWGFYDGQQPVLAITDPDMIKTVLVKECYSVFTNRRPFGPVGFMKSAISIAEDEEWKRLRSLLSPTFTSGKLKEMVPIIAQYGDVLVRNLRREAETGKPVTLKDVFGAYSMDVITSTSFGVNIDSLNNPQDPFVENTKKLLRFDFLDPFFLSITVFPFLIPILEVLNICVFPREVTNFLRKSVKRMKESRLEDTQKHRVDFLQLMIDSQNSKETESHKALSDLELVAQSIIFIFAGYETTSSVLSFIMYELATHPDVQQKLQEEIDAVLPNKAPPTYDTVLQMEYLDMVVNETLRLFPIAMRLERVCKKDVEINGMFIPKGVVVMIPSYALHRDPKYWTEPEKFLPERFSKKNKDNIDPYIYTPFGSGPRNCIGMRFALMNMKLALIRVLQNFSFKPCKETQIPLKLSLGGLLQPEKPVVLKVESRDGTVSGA
Description: as §1

hERG = hERG (Homo sapiens, UniProt Q12809); assay: hERG in vitro safety pharmacology
Chain of hERG (Q12809 whole entry): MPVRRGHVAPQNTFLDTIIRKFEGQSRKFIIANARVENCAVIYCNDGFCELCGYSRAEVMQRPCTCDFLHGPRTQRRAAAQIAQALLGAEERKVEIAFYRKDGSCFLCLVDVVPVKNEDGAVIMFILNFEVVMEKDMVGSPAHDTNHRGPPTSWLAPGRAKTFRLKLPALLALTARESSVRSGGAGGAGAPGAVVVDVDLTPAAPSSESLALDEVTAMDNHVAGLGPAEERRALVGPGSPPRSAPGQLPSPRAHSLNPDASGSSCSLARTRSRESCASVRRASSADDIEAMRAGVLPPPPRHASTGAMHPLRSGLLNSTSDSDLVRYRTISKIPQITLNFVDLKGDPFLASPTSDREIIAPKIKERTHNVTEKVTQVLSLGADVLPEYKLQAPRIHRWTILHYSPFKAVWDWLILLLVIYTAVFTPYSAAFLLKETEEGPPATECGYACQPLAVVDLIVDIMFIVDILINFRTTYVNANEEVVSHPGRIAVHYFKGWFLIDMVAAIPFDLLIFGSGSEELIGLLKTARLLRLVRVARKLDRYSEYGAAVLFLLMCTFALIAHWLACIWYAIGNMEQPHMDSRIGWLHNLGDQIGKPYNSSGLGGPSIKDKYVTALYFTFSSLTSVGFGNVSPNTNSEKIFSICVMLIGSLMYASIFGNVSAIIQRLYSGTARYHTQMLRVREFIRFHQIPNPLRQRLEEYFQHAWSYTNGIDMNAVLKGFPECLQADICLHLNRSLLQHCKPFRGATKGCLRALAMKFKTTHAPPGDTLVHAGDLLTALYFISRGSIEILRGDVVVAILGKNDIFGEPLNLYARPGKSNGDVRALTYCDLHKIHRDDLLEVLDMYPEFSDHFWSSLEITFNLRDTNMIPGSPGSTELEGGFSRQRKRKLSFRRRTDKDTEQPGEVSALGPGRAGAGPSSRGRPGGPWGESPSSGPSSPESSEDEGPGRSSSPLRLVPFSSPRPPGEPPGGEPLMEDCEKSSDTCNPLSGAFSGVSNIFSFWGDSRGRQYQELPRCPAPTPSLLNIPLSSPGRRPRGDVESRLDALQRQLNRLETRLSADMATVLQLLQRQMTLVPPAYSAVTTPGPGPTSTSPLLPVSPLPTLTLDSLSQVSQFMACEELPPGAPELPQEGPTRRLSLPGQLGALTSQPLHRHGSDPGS
Description: The IC50 for hERG was greater than 10 μM. A generally accepted safety margin against hERG and other important cardiac targets is ≥30 (a safety margin is calculated as: IC50/Cmax, free or EC50/Cmax, free).

[1] = type: in vivo; conditions: naïve rats, dosing for 7 days
Source text: At 4 days, vehicle-treated animals gained approximately 1% body weight, going from 25.24±0.74 g to 25.50±0.64 g. Formula 1 treated animals went from 25.28±1.04 g to 25.82±1.25 g.

[2] = type: in vivo; conditions: naïve mice, 10 mg/kg IP
Description: Changes in responses of normal withdrawal threshold to heat and cold stimuli in naïve animals following drug treatment may reflect a CNS effect, as in the case of cannabinoids or opioids. Therefore, the response of the naïve mice post-Formula 1 administration at a dose of 10 mg/kg IP was assessed (Table 5).

[3] = system: CCI-induced neuropathic pain; assay: Chronic constriction injury (CCI) model in mice, SC route; type: in vivo; conditions: for Dose of maximum activity / Duration of activity at maximum effect / Level of activity (% of maximum effect-baseline) / Peak of activity (T): CCl model, mice
Description: Study outline in brief: The sciatic nerve of mice was exposed under anesthesia, and 3 loose ligations were placed around the nerve. Animals were allowed to recover for 3 days. Tactile allodynia (von Frey testing) and thermal (hot at 50±1° C. and cold at 2±1° C.) hyperalgesia were then assessed. Animals that experienced tactile allodynia were assigned to their treatment groups (vehicle, gabapentin and Formula 1 at different doses). Animals were subsequently treated daily for a period of 5 days with either vehicle or Formula 1 at different doses. Gabapentin at a dose of 150 mg/kg was dosed only on days of testing (day 3 and day 7).

[4] = system: Taxol-induced neuropathic pain; assay: Taxol-induced neuropathic pain in mice, oral route; type: in vivo
Description: Study outline in brief: Animals were dosed daily with Taxol for a period of 8 consecutive days (Day 0 to Day 7). On study day 8, prior to drug dosing, the decrease in withdrawal force (tactile allodynia) was verified by applying the von Frey test. After assigning the animals to their treatment groups, the animals were treated daily for a period of 5 days with either vehicle or Formula 1 at different doses. Gabapentin at a dose of 150 mg/kg was dosed only on days of testing (day 8 and day 14).
The activity of Formula 1 following oral administration was assessed using the Taxol model (see Study Outline in section 7.1). […] Gabapentin dosed at 150 mg/kg was active for a period of 4 h post-dosing.

[5] = system: Taxol-induced neuropathic pain; assay: Taxol-induced neuropathic pain in the rat, per oral; type: in vivo; conditions: Taxol rats
Description: Study outline in brief: Taxol was administered daily for a period of 17 days (day 0 to day 16). On day 16, the withdrawal force was evaluated using the von Fey test. The animals experienced a reduction of more than 60% in the withdrawal force following repeated Taxol dosing. After a single treatment with Formula 1 at a dose of 50 mg/kg, a full reversal was recorded, i.e. the withdrawal force was similar to the values recorded prior to Taxol dosing commencement. The duration of the analgesic activity was at least 6 h.

[6] = system: CCI-induced neuropathic pain; assay: CCI-induced neuropathic pain in the rat, oral; type: in vivo; conditions: CCI rats
Description: Study plan in brief: SD male rats were operated as described by Bennet and Xie7. On study day 7, the sensitivity of the animals to von Frey was assessed. […] The animals were then dosed with either vehicle, gabapentin or Formula 1. Treatment with Formula 1 was not effective 2 h post-single dose.

[7] = system: Taxol-induced neuropathic pain; assay: Taxol-induced neuropathic pain in mice, oral route; type: in vivo; conditions: oral 50 mg/kg, study day 14, repeated daily dosing day 8 to day 14

SMILES: CC(C)(C)C(=O)O[C@@H]1[C@@H]2[C@H]3C[C@H](C[C@@H]1N3Cc1ccccn1)CN2C(=O)CC(F)(F)F (relative stereo) [Formula 1, (2S*,3S*,3aS*,6R*,7aR*)-1-(pyridin-2-ylmethyl)-4-(3,3,3-trifluoropropanoyl)octahydro-1H-2,6-methanopyrrolo[3,2-b]pyridin-3-yl pivalate]
- IC50 (CYP1A2): > 10 µM
- IC50 (CYP2D6): > 10 µM
- IC50 (CYP3A4): > 10 µM
- IC50 (hERG): > 10 µM
- effect on body weight gain [1]: did not affect body weight gain
- Response to cold stimuli (2 ± 1° C. ) [2]: 20.6 ± 11.39 s
- Response to heat stimuli (50 ± 1° C. ) [2]: 12.87 ± 2.59 s
- basal response to cold or heat stimuli [2]: not effective in altering the basal response
- effect on response time in the hotplate test ([3]; CCI mice, SC): not significant
- response time to cold stimuli ([3]; CCI mice, SC 30 mg/kg and 60 mg/kg): increased response time to cold stimuli
- withdrawal force (von Frey) ([3]; CCI mice, SC 60 mg/kg, daily repeated treatment): significant increase in the withdrawal force
- time of peak activity on cold response ([3]; CCI mice, SC, following a single dose): 2 h
- time of peak activity on cold response ([3]; CCI mice, SC, post-dosing following repeated daily dosing): 2 h
- tolerance effect ([3]; CCI mice, SC, repeated dosing): No tolerance effect was observed
- Dose of maximum activity ([3]; SC, first SC line): 60 mg/kg
- Duration of activity at maximum effect ([3]; SC, first SC line): >4 H
- Level of activity (% of maximum effect-baseline) ([3]; SC, first SC line): 43%
- Peak of activity (T) ([3]; SC, first SC line): 2 H
- Level of activity (% of maximum effect-baseline) ([3]; SC, second SC line (readout not given)): 100%
- Dose of maximum activity ([3]; SC, second SC line): 30 mg/kg
- Duration of activity at maximum effect ([3]; SC, second SC line): >4 H
- Peak of activity (T) ([3]; SC, second SC line): 2 H
- withdrawal force ([4]; Taxol mice, oral 50 mg/kg, 2 h post-single administration, study day 8): active in fully reversing the withdrawal force
- withdrawal force ([4]; Taxol mice, oral 50 mg/kg, 24 h post-dosing (study day 14 pre-dosing)): significantly active
- tolerance effect ([4]; Taxol mice, oral 50 mg/kg, repeated daily dosing): No tolerance effect was noted
- heat hyperalgesia (hotplate test) ([4]; Taxol mice, oral 50 mg/kg, 50 mg/kg): No activity was found; also recorded: not statistically different from the vehicle-treated group
- Dose of maximum activity ([4]; Taxol model, PO, mice): <50 mg/kg
- Duration of activity at maximum effect ([4]; Taxol model, PO, mice): 24 H
- Level of activity (% of maximum effect-baseline) ([4]; Taxol model, PO, mice): 100%
- Peak of activity (T) ([4]; Taxol model, PO, mice): 2-6 H
- body weight loss following Taxol dosing [5]: the rate of weight loss was reduced
- duration of the analgesic activity ([5]; oral 50 mg/kg): at least 6 h
- withdrawal force vs. vehicle 24 h post-dosing ([5]; oral 50 mg/kg): no significant difference
- withdrawal force (von Frey) ([5]; single oral treatment 50 mg/kg): full reversal
- change of activity on continuous dosing [6]: increase in compound activity
- withdrawal force (von Frey) ([6]; 2 h post-single dose): not effective
- withdrawal threshold ([6]; daily oral 50 mg/kg, study day 11, 2 h post-treatment): significant increase in the withdrawal threshold
- withdrawal force [7]: This activity was maintained

— patent publication US10351566B2, “Therapeutic compounds for pain and synthesis thereof” (priority 2015, dated 2019)
